For one data set, the system named is BALB/C mice. Kind of data set: DSS induced acute colitis model of IBD, disease activity index (DAI). To be noted: DSS treated control group average DAI 3; score 0 to 4. The class given is in vivo, mouse. As for the experimental part: BALB/C mice were induced with acute colitis by feeding dextran sulfate sodium (DSS) in drinking water for one week and synthetic cathelicidin was administered intrarectally daily during colitis induction.
Mice were induced with acute colitis by being given 3% DSS (molecular weight, 36-50 kDa) according to the method described by Liu et al. (Carcinogenesis 24:1407-1413, 2003). The 3% DSS was given in their drinking water liar 7 days (from Day 0 to Day 7). Normal control mice received tap water throughout the experiment.
Intrarectal administration of AMPs Cathelicidin mCRAMP (5 mg/Kg/day), beta-Defensin 1 (1 mg/Kg/day), beta-Defensin 3 (1 mg/Kg/day), Elafin and SLPI, CCL20 (1 mg/Kg/day), lysozyme (3 mg/Kg/day)), as well as bactericidal/permeability increasing protein (1 mg/Kg/day). The mice were divided into two groups of 10, one receiving ordinary tap water and the disease group with DSS treatment. The peptides were intrarectally administrated once daily for 10 consecutive days beginning 3 dayd before DSS treatment. The PBS control mice received equal volumes of PBS (i.e., 100 ul) intrarectally.
In all tested animals, body weight, stool consistency, and presence of gross bleeding were recorded. Disease activity index (DAI) was calculated according to the method described by Cooper et al. (Lab Invest 69:238-249, 1993.). In brief, body weight loss, stool consistency, and bleeding were scored from 0 to 4, and DAI is the combined score divided by 3.
In addition, a parallel experiment using mCRAMP (0.8 mg/Kg) administered by injection into the peritoneum 3 times a week beginning at one week before DSS treatment. In this experiment, two groups of mice (10 in each) were compared were the control group received saline during DSS treatment while the treatment group received mCRAMP (0.8 mg/Kg) intraperitonculy 3 times a week.
AMPs were applied both individually or together in combination.

The test system of a further data set is human psoriatic skin. Kind of data set: Human in-vivo psoriatic lesion treatment. To be noted: blind trial; for skin psoriatic lesion, 5 days treatment: Cathelicidin 10 ug/ml applied to lesions in a human subject. As for the experimental part:
Human in-vivo psoriatic lesion treatment: Cathelicidin 10 ug/ml or human beta defensin-2 diluted in PBS containing 0.1% BSA, or buffer carrier was applied to lesions in a human subject in a blind trial.

Another data set relates to BETATC beta cell line. Kind of data set: Thymidine incorporation cell proliferation assay. It is filed as cell-based, mouse. To be noted: LL-37 2 microgram/ml, 3.5 days, vs PBS control. The protocol:
Murine beta cell line were treated for 3.5 days with LL-37 at 2 microgram/ml (red/dark bars) and compared to PBS control ([…]). Cell proliferation was estimated by measuring [3(H)]-thymidine incorporation and was expressed as percent of control untreated cells. A representative experiment is shown.
Antimicrobial peptides (AMPs): The antimicrobial peptides human cathelicidin LL-37: […] (SEQ ID NO: 14) was obtained from AnaSpec, USA (Catalogue numbers: 61302). Cathelicidin at 2 ug/ml was added to the plate and compared with control.
Thymidine incorporation cell proliferation assay: Cell proliferation was evaluated by measuring [3(H)]-thymidine incorporation into DNA. Cells were pulsed with [3(H)]-thymidine (1 microcurie/mL, ICN, Irvine, Calif.) for 1 hour, at 37 degrees centigrade. After incubation, cells were washed 3 times with PBS, incubated for 15 minutes at room temperature in 5% trichloroacetic acid and solubilized in 1% triton X-100. The radioactivity incorporated into the cells was counted in the [3(H)]-window of a Tricarb liquid scintillation counter. Mean values were determined from measurements of triplicate samples under each experimental condition for each experiment. Thymidine incorporation was determined as number of disintegrations per minute (DPM) per mg of protein.

For data set [1] the following is noted: Infection and immunity, November 1999, p. 6084-6089; cited from earlier work.

Entries after “also recorded” stand apart in the source; their conditions may differ. No end group written: not given here.

In the case of “Alpha-Defensin 6: antimicrobial peptide reported in the DSS colitis model (AFTCHCRRSCYSTEYSYGTCTVMGINHRFCCL; ends and bridges not checked; cysteine pairing not given here; UniProt Q01524 69-100, looked up)”, the “average DAI (disease activity index)” value in the data set with BALB/C mice is 1.8. Regarding “LLGDFFRKSKEKIGKEFKRIVQRIKDFLRNLVPRTES [LL-37]”, the “skin psoriatic lesion, 5 days treatment” value in the data set with human psoriatic skin is on record as “slight improvement”. For the same molecule, the “cell proliferation ([3(H)]-thymidine incorporation)” value with BETATC beta cell line is on record as “significant BETATC beta cell line proliferation; also recorded: slight increase in cell proliferation”. In addition, the “half-life in blood of humans” value in data set [1] was “approximately 3.4 days”. “SKEKIGKEFKRIVQRIKDFLRNLVPRTES (listed as Homo sapiens) [SK29, fragment cathelicidin SK29]”: in the data set on human psoriatic skin, the “skin psoriatic lesion, 5 days treatment” value is on record as “slight improvement”. Turning to “beta-Defensin 3: antimicrobial peptide tested in the DSS colitis model (GIINTLQKYYCRVRGGRCAVLSCLPKEEQIGKCSTRGRKCCRRKK; ends and bridges not checked; cysteine pairing not given here; UniProt P81534 23-67, looked up)”, in the data set with BALB/C mice, the “average DAI (disease activity index)” value is recorded as 1.8.

As to “human beta defensin-2: Human Beta-Defensin-2 peptide purchased from Sigma-Aldrich (GIGDPVTCLKSGAICHPVFCPRRYKQIGTCGLPGTKCCKKP; ends and bridges not checked; cysteine pairing not given here; UniProt O15263 24-64, looked up) [reference compound]”, the “skin psoriatic lesion, seven week course of treatment” value in the data set on human psoriatic skin (applied to lesions in a human subject, FIG. 20) was “worsening of skin psoriatic legion”. Moreover, in the data set with BALB/C mice, the “average DAI (disease activity index)” value turned out to be 1.8.

B1: Alpha-Defensin 5: antimicrobial peptide reported in the DSS colitis model (peptide, UniProt Q01523 20-94, looked up)
Defensin alpha 5: ESLQERADEATTQKQSGEDNQDLAISFAGNGLSALRTSGSQARATCYCRTGRCATRESLSGVCEISGRLYRLCCR
modifications: Defensin-5
notes: antimicrobial peptide reported in the DSS colitis model
On to B1, for which the “average DAI (disease activity index)” value in the data set with BALB/C mice was 1.8.

Source of the values: US8202835B2, “Disease treatment via antimicrobial peptides or their inhibitors” (priority 2005, dated 2012).
